Values quoted from earlier work as cited in patent publication US20080069909A1, “MENOPAUSE DISORDER SYNERGISTIC PHYTO-NUTRACEUTICAL COMPOSITION” (priority 2006, published 2008).
Like-named read-outs stand apart in the source and are kept apart here. Blank lines part the entries; values can stand above or below the compound they belong to.

What was measured:
[1] = tested on: bacterial resistance mechanism (multidrug pump)
beta-estrogenic receptor = beta-estrogenic receptor (Homo sapiens, UniProt Q92731)
beta-estrogenic receptor, sequence (Q92731 whole entry): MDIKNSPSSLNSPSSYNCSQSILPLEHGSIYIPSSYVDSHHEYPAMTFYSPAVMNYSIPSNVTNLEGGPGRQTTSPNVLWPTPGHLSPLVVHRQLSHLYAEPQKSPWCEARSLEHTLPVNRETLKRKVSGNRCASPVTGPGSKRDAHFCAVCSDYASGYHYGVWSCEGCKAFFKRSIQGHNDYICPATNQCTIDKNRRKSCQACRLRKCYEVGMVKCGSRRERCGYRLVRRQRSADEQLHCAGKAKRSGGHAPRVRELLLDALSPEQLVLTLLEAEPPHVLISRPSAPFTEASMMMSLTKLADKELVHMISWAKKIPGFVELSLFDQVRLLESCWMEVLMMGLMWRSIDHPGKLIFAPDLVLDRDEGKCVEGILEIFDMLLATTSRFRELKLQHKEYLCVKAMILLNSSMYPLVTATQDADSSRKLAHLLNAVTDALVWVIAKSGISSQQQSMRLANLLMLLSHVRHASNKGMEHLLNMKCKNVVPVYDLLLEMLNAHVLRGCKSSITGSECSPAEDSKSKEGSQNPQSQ

binding to estrogen receptors (estrogen receptors): can bind to estrogen receptors
Compound: CCCCC/C=C\C/C=C\CCCCCCCC(=O)O [Linoleic acid]
induction of estrogen inducible genes (estrogen inducible genes): induce certain estrogen inducible genes

receptor ligand (beta-estrogenic receptor): specific ligands
Compound: COc1cc2oc(-c3ccc(O)cc3)c(OC)c(=O)c2c(O)c1OC [Penduletin]

receptor ligand (beta-estrogenic receptor): specific ligands
Compound: O=c1cc(-c2ccc(O)cc2)oc2cc(O)cc(O)c12 [apigenin]

Continued, compound first:

Compound: COc1cc([C@H]2Oc3cc(-c4cc(=O)c5c(O)cc(O)cc5o4)cc(OC)c3O[C@@H]2CO)ccc1O (racemic) [5′-MHC, 5′-methoxyhydnocarpin]
activity of herbal Berberine alkaloids ([1]; by the action of 5′-MHC): strongly potentiated
accumulation of berberine in the cells ([1]; in the presence of 5′-MHC): strong increase

Compound: O=c1c(-c2ccc(O)cc2)coc2c([C@@H]3O[C@H](CO)[C@@H](O)[C@H](O)[C@H]3O)c(O)ccc12 [puerarin]
estrogen-like effect (estrogen receptor; estrogen-deficiency animals): weak estrogen-like effect
estrogen-like effect (estrogen receptor; high-estrogen-level animals): antiestrogen-like effect
estrogen-like effect (estrogen receptor; normal-estrogen level animals): no effect
